Results published in US20200253978A1, “HETEROCYCLICS AS INHIBITORS OF FIBROBLAST GROWTH FACTOR RECEPTOR” (ADVENT PHARMA CO. LTD., priority 2017, published 2020).

Columns and labels:
[1] = biological target: T1, BaF3 cells expressing Tel-FGFR-1 and luciferase (Homo sapiens, UniProt P11362); assay: BaF3 cellular growth inhibition assay, Tel-FGFR-1 and luciferase (Bright-Glo); assay type: cell-based; details: BaF3 Tel-FGFR-1 cells, 2 days incubation, 50% growth inhibition vs DMSO
T1 construct: Luciferase is co-expressed as a viability reporter and is not part of the key; P41212 (Transcription factor ETV6)
T1 sequence (P11362 478-767 limits assumed): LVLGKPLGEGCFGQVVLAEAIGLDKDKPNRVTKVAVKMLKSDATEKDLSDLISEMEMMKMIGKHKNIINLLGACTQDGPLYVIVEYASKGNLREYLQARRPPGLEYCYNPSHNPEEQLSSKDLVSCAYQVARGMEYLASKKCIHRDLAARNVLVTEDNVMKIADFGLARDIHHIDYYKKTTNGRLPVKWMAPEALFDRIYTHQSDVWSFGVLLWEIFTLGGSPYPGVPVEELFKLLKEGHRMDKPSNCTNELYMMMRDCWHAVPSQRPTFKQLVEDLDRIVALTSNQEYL
Method: (§1) Compounds' inhibitory activities against FGFR-4 or FGFR-1 were measured in BaF3 cells expressing Tel-FGFR-4 and luciferase or Tel-FGFR-1 and luciferase, whose growth was dependent on FGFR-4 or FGFR-1 kinase but independent of IL-3. The cells were plated in 384-well plates in RPMI1640 with 10% FBS. Compounds were added as 11-point dilutions. Cell viability was determined by Bright-Glo luciferase assay (Promega) after cells were incubated with compounds for 2 days. The IC50 value was determined as the concentration for 50% growth inhibition compared to DMSO treated cells (A: IC50<0.1 μM; B: IC50 between 0.1 μM and 1 μM; C: IC50 between 1 μM and 10 μM).

[2] = biological target: T2, BaF3 cells expressing Tel-FGFR-4 and luciferase (Homo sapiens, UniProt P22455); assay: BaF3 cellular growth inhibition assay, Tel-FGFR-4 and luciferase (Bright-Glo); assay type: cell-based; details: BaF3 Tel-FGFR-4 cells, 2 days incubation, 50% growth inhibition vs DMSO
T2 construct: Luciferase is co-expressed as a viability reporter and is not part of the key; P41212 (Transcription factor ETV6)
T2 sequence (P22455 467-755 limits assumed): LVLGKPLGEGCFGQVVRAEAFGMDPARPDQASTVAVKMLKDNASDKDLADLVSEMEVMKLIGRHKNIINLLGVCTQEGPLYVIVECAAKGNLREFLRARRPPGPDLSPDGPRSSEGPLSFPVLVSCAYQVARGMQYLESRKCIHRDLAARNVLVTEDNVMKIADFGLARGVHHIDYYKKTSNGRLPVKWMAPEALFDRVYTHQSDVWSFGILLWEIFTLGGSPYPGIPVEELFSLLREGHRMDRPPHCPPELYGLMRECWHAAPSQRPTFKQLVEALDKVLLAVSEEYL
Method: as §1

SMILES | IC50 ([1]; numeric bounds) | IC50 [2] | IC50 ([1]; class symbols)
C=CC(=O)Nc1cc(N2CCN(CC)CC2)ccc1Nc1cc2cc(C(=O)c3cc(OC)cc(OC)c3)oc2cn1 [Example 11, N-(2-((2-(3,5-dimethoxybenzoyl)furo[2,3-c]pyridin-5-yl)amino)-5-(4-ethylpiperazin-1-yl)phenyl)acrylamide] | – | 100 to 1000 nM | 1000 to 10000 nM
C=CC(=O)Nc1cc(N2CCN(CC)CC2)ccc1Nc1cc2cc(C(O)c3c(F)c(OC)cc(OC)c3F)oc2cn1 (single isomer, unassigned) [Example 13A, N-(2-((2-((2,6-difluoro-3,5-dimethoxyphenyl)(hydroxy)methyl)furo[2,3-c]pyridin-5-yl)amino)-5-(4-ethylpiperazin-1-yl)phenyl)acrylamide] | > 10000 nM | < 100 nM | –
C=CC(=O)Nc1cc(N2CCN(CC)CC2)ccc1Nc1cc2cc(C(O)c3c(F)c(OC)cc(OC)c3F)oc2cn1 (racemic) [Example 5, (±)-N-(2-((2-((2,6-difluoro-3,5-dimethoxyphenyl)(hydroxy)methyl)furo[2,3-c]pyridin-5-yl)amino)-5-(4-ethylpiperazin-1-yl)phenyl)acrylamide] | > 10000 nM | < 100 nM | –
C=CC(=O)Nc1cccc(Cl)c1Nc1cc2cc(C(=O)c3c(F)c(OC)cc(OC)c3F)oc2cn1 [Example 26, N-(3-chloro-2-((2-(2,6-difluoro-3,5-dimethoxybenzoyl)furo[2,3-c]pyridin-5-yl)amino)phenyl)acrylamide] | > 5100 nM | < 100 nM | –

Second part, the compound after the results:

IC50 ([1]; numeric bounds) | IC50 [2] | IC50 ([1]; class symbols) | SMILES
> 3300 nM | < 100 nM | – | CCN1CCN(c2ccc(Nc3cc4cc(C(=O)c5c(F)c(OC)cc(OC)c5F)oc4cn3)c(NC(=O)/C=C\Cl)c2)CC1 [Example 33, (Z)-3-chloro-N-(2-((2-(2,6-difluoro-3,5-dimethoxybenzoyl)furo[2,3-c]pyridin-5-yl)amino)-5-(4-ethylpiperazin-1-yl)phenyl)acrylamide]
> 10000 nM | 1000 to 10000 nM | – | C=CC(=O)N[C@H]1CCOC[C@H]1Nc1ncc2oc(C(O)c3c(F)c(OC)cc(OC)c3F)cc2n1 (stereo partly drawn) [Example 34, N-((3S,4S)-3-((6-((2,6-difluoro-3,5-dimethoxyphenyl)(hydroxy)methyl)furo[3,2-d]pyrimidin-2-yl)amino)tetrahydro-2H-pyran-4-yl)acrylamide]
